The record followed here is patent EP1082127B1 (WARNER-LAMBERT COMPANY LLC, priority 1998, dated 1999).

The subject of assay [1] is IL-1β production in human peripheral blood mononuclear cells (PBMCs). The assay can be described thus: PBMC Cellular Assay - IC50 Determinations (LPS-stimulated IL-1β production, ELISA). Format: cell-based. The conditions noted are these: human PBMCs stimulated overnight with 10 ng/mL LPS, mature IL-1β by ELISA. The text has this: Further evidence that compounds of Formula I are inhibitors of ICE is provided by their ability to inhibit IL-1β production in human peripheral blood mononuclear cells (PBMCs) as described herein. PBMCs are isolated from heparinized blood by centrifugation over a ficoll cushion, then washed three times with phosphate-buffered saline. PBMCs are suspended in a medium containing RPMI 1640 with glutamine, penicillin, streptomycin, and 2% human AB serum, then plated at 10^6 cells per well in 96-well flat bottom plates. PBMCs are stimulated overnight with 10 ng/mL of lipopolysaccharide (LPS, E. coli strain 0111:B4; Calbiochem) in the presence or absence of a compound of Formula I. Medium is harvested, and the level of mature IL-1β was determined using an ELISA kit from R&D Systems. Cells were cultured for an additional 4 hours in the presence of 3-(4,5-dimethylthiazol-2-yl)-2,5-diphenyltetrazolium bromide (MTT) to determine viability.
For orientation: ELISA stands for enzyme-linked immunosorbent assay.

The target of assay [2] is T1, ICE (Homo sapiens, UniProt P29466).
T1 sequence (P29466 120-297 limits assumed): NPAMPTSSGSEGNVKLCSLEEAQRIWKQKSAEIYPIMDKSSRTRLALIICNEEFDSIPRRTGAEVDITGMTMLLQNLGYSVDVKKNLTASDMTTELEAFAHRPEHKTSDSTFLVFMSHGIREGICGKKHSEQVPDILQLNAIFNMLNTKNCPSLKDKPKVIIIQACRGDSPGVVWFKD
T1 sequence (P29466 317-404 limits assumed): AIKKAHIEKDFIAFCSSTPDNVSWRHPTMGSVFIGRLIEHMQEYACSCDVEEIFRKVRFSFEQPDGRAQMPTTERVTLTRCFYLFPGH
The assay can be described thus: ICE Colorimetric Dose-Response (IC50) Assay. The format is biochemical. To be noted: 60 minutes preincubation, 50 µM Ac-Tyr-Val-Ala-Asp-pNA, 25°C. The procedure:
(§1) Diluted inhibitor stocks are prepared by two-fold serial dilution from a primary stock whose concentration is selected (based on screening results or on prior attempts at IC50 evaluation) to achieve approximately 95% inhibition in the most concentrated well. Aliquots of each dilution are transferred to a microtitre plate in triplicate.
(§2) ICE enzyme is diluted to approximately 24 nM in HGE buffer (100 mM Hepes pH 7.5, 0.5 mM EDTA, 20% glycerol, 0.1% Bovine Serum Albumin (BSA), and activated by adding dithiothreitol (DTT) to a final concentration of 5 mM. The activated enzyme is then aliquoted into wells containing inhibitor or vehicle, and the plate is preincubated for 60 minutes at ambient temperature. Substrate (Ac-Tyr-Val-Ala-Asp-pNA) is added to each well to a final concentration of 50 µM, and plates are placed in the microtitre plate-reader thermostated to 25°C. Beginning 5 minutes after addition of substrate, absorbance (405 nm) of wells is monitored for 1 hour, and activity is calculated as the mean rate of change in absorbance during this interval.

The target of assay [3] is T1, ICE. The assay can be described thus: ICE inhibition, Ki determination (fluorogenic substrate Ac-Tyr-Val-Ala-Asp-AMC). The format is biochemical. The conditions noted are these: 15 µM Ac-Tyr-Val-Ala-Asp-AMC, 0.5 nM enzyme, 30°C, reversible competitive model. The protocol:
Serial dilutions of each compound of the invention are prepared using an initial 8-fold dilution of a DMSO stock into HGE (100 mM HEPES, 20% glycerol v/v, 0.5 mM EDTA), followed by seven serial 2-fold dilutions into HGE + 12.5% DMSO. Ten microliters of diluted stocks or of vehicle (HGE + 12.5% DMSO) are placed in triplicate onto a 96-well microtiter plate. Enzyme is diluted into assay buffer (HGE, 5 mM DTT, 15 µM Ac-Tyr-Val-Ala-Asp-AMC; 0.5 nM final enzyme concentration, pre-warmed to 30°C), and this reaction mixture is added to the plate at 90 µL/well. Substrate hydrolysis is monitored for 300 seconds at 30°C using 385 and 460 nm excitation and emission filters, respectively. Triplicate curves are averaged, and slopes are evaluated by linear regression. To evaluate Ki, plots of percent inhibition vs inhibitor concentration are fit by non-linear regression to a reversible, competitive model: [formula] where the competition factor is (1 + [S]/KM) = 2.

In assay [4] the target is T2, Ich-2 enzyme (Homo sapiens, UniProt P49662).
T2 sequence (P49662 81-270 limits assumed): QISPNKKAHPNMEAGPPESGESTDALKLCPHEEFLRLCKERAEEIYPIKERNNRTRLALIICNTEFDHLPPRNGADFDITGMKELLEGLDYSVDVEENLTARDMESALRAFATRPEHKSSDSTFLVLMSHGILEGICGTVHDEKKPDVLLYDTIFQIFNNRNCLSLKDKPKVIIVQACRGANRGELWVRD
T2 sequence (P49662 290-377 limits assumed): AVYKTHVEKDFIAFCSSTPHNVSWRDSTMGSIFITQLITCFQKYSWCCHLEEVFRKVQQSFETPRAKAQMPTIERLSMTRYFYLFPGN
The assay can be described thus: Ich-2 Colorimetric Dose-Response (IC50) Assay. Format: biochemical. To be noted: enzyme 64 nM, 60 µM Ac-Leu-Glu-Val-Asp-pNA; read-out: ICH2 IC50 (Caspase 4). The procedure:
as §1, §2
Inhibition of Ich-2 enzyme is assayed as described above for ICE, except that enzyme is used at 64 nM, and 60 µM of the Ich-2-specific substrate Ac-Leu-Glu-Val-Asp-pNA is used instead of the ICE substrate Ac-Tyr-Val-Ala-Asp-pNA.

Take `CC(C)C(CC(=O)NCCCc1ccc(O)cc1)C(=O)NC(CC(=O)O)C(=O)CNS(=O)(=O)CC12CCC(CC1=O)C2(C)C` (centres unmarked) [Example 17, 5-(7,7-Dimethyl-2-oxo-bicyclo[2.2.1]hept-1-ylmethanesulfonylamino)-3-{3-methyl-2-[[3-(4-hydroxyphenyl)-propylcarbamoyl]-methyl]-butyrylamino}-4-oxo-pentanoic acid]: the concentration for half-maximal inhibition (IC50) in assay [1] came out at 2250 nM; in assay [2], 79 nM; in assay [4] it was 4680 nM. Besides, in assay [3], affinity was put at a Ki of 32.9 nM.

For the compound `CC(C)C(CC(=O)NO)C(=O)NC(CC(=O)O)C(=O)CNS(=O)(=O)CC12CCC(CC1=O)C2(C)C` (centres unmarked) [Example 15, 5-(7,7-Dimethyl-2-oxo-bicyclo[2.2.1]hept-1-ylmethanesulfonylamino)-3-(2-hydroxycarbamoylmethyl-3-methyl-butyrylamino)-4-oxo-pentanoic acid], the IC50 in assay [1] came out at 17500 nM; in assay [2], 2050 nM; in assay [4] it was 13100 nM. Besides, the Ki in assay [3] was 441 nM.

As to `CC(C)C(CC(=O)NCCc1ccncc1)C(=O)NC(CC(=O)O)C(=O)CNS(=O)(=O)CC12CCC(CC1=O)C2(C)C` (centres unmarked) [Example 32, 5-(7,7-Dimethyl-2-oxo-bicyclo[2.2.1]hept-1-ylmethanesulfonylamino)-3-{3-methyl-2-[(2-pyridin-4-yl-ethylcarbamoyl)-methyl]-butyrylamino}-4-oxo-pentanoic acid], the figures for the IC50 in assay [1], in assay [2] and in assay [4] were 3300 nM, 458 nM and 14100 nM, respectively. For the same compound, the Ki in assay [3] came out at 26 nM.

For the compound `CC(C)C(CC(N)=O)C(=O)NC(CC(=O)O)C(=O)CNS(=O)(=O)CCc1ccccc1` (centres unmarked) [Example 4, 3-(2-Carbamoylmethyl-3-methyl-butyrylamino)-4-oxo-5-(2-phenyl-ethanesulfonyl-amino)-pentanoic acid], the IC50 was 65000 nM in assay [1], 16800 nM in assay [2] and 9720 nM in assay [4]. Also, affinity in assay [3] was put at a Ki of 2180 nM.

For the compound `CC(C)C(CC(=O)NCCc1ccc2ccccc2c1)C(=O)NC(CC(=O)O)C(=O)CNS(=O)(=O)CC12CCC(CC1=O)C2(C)C` (centres unmarked) [Example 18, 5-(7,7-Dimethyl-2-oxo-bicyclo[2.2.1]hept-1-ylmethanesulfonylamino)-3-{3-methyl-2-[(2-naphthalen-2-yl-ethylcarbamoyl)-methyl]-butyrylamino}-4-oxo-pentanoic acid], the IC50 in assay [1] was 2050 nM; in assay [2], 89.4 nM; in assay [4], 3010 nM. In assay [3], the Ki was 23.6 nM.

Consider `CC(=O)c1ccc2[nH]cc(CCNC(=O)CC(C(=O)NC(CC(=O)O)C(=O)CNS(=O)(=O)CC34CCC(CC3=O)C4(C)C)C(C)C)c2c1` (centres unmarked) [Example 33, 3-(2-{[2-(5-Acetyl-1H-indol-3-yl)-ethylcarbamoyl]-methyl}-3-methyl-butyrylamino)-5-(7,7-dimethyl-2-oxo-bicyclo[2.2.1]hept-1-ylmethanesulfonylamino)-4-oxo-pentanoic acid], for which the IC50 in assay [1] was 1600 nM; in assay [2] it was 23 nM; in assay [4] it was 3090 nM. Besides, the inhibitory constant (Ki) in assay [3] came to 6.5 nM.

`CC(C)C(CC(=O)NCCc1cn(C)c2ccccc12)C(=O)NC(C=O)CC(=O)O` (centres unmarked) [Example 54, 3-(3-Methyl-2-{[2-(1-methyl-1H-indol-3-yl)-ethylcarbamoyl]-methyl}-butyrylamino)-4-oxo-butyric acid]: the half-inhibitory concentration (IC50) in assay [1] is 2850 nM; in assay [2], 37 nM; in assay [4], 11100 nM. The inhibition constant Ki in assay [3] amounted to 4 nM.

For `CC(C)C(CC(=O)N(C)CCc1cn(C)c2ccccc12)C(=O)NC(C=O)CC(=O)O` (centres unmarked) [Example 21, 3-[3-Methyl-2-({methyl-[2-(1-methyl-1H-indol-3-yl)-ethyl]-carbamoyl}-methyl)-butyrylamino]-4-oxo-butyric acid], the concentration for half-maximal inhibition (IC50) in assay [1] worked out at 7500 nM; in assay [2] it was 130 nM; in assay [4], 209000 nM. In assay [3], this compound came in with an inhibition constant (Ki) of 28 nM.

By IC50 is commonly meant the point on the concentration scale where inhibition reaches its midpoint. In general, Ki refers to the equilibrium dissociation constant of an inhibitor or competing ligand from its target. A higher Ki goes with lower affinity.
